Source: patent US12377104B1, “Methods for treating a fatty liver disease” (Madrigal Pharmaceuticals, Inc., priority 2024, dated 2025)

Test system: NASH patients
Test: MAESTRO-NASH: efficacy by baseline body weight and BMI
Type: in vivo, human
Details: for ≥30% Reduction in MRI-PDFF at Week 52, Assessment (%) / ≥120% Increase in SHBG at Week 52, Assessment (%): post hoc
Description: In the MAESTRO-NASH study, randomization to 80 mg and 100 mg doses was equal across all body weights. Analyses were conducted to provide additional evidence of a relationship between resmetirom dose, baseline body weight and body mass index (BMI), and safety/efficacy readouts. […] The only variable that determined exposure to resmetirom in the NASH population was body weight. […] Study median body weight was 100 kg. […] et al. (2024). CAP was stable over time, both doses showing a similar durable response (FIG. 30B).

[1] = Week 52 Paired Biopsies, 80 mg, >100 kg
[2] = Week 52 Paired Biopsies, 80 mg, ≤100 kg
[3] = Week 52 Paired Biopsies, 100 mg, >100 kg
[4] = Week 52 Paired Biopsies, 100 mg, ≤100 kg
[5] = Week 52 Primary Population, 80 mg, >100 kg
[6] = Week 52 Primary Population, 80 mg, ≤100 kg
[7] = Week 52 Primary Population, 100 mg, >100 kg
[8] = Week 52 Primary Population, 100 mg, ≤100 kg

CC(C)c1cc(Oc2c(Cl)cc(-n3nc(C#N)c(=O)[nH]c3=O)cc2Cl)n[nH]c1=O [Resmetirom, 2-(3,5-dichloro-4-((5-isopropyl-6-oxo-1,6-dihydropyridazin-3-yl)oxy)phenyl)-3,5-dioxo-2,3,4,5-tetrahydro-1,2,4-triazine-6-carbonitrile]
Week 52 Paired Biopsies Consensus NASH Resolution Responder: number (100 mg, 80-<90 kg): 16
Week 52 Paired Biopsies Consensus NASH Resolution Responder: percentage (in parentheses) (100 mg, 80-<90 kg): (39.0)
≥30% reduction in MRI-PDFF at Week 52: number of patients (100 mg, 80-<90 kg): 30
≥30% reduction in MRI-PDFF at Week 52: percentage of patients (in parentheses) (100 mg, 80-<90 kg): (76.9)
≥120% increase in SHBG at Week 52: number of patients (100 mg, 80-<90 kg): 27
≥120% increase in SHBG at Week 52: percentage of patients (in parentheses) (100 mg, 80-<90 kg): (62.8)
Discontinued Study Prior to Week 52: number (100 mg, 90-<100 kg): 15
Discontinued Study Prior to Week 52: percentage (in parentheses) (100 mg, 90-<100 kg): (25.4)
Week 52 MITT Consensus Fibrosis Improvement Responder: number (100 mg, 90-<100 kg): 12
Week 52 MITT Consensus Fibrosis Improvement Responder: percentage (in parentheses) (100 mg, 90-<100 kg): (20.3)
Week 52 MITT Consensus NASH Resolution Responder: number (100 mg, 90-<100 kg): 13
Week 52 MITT Consensus NASH Resolution Responder: percentage (in parentheses) (100 mg, 90-<100 kg): (22.0)
Week 52 Paired Biopsies Consensus Fibrosis Improvement Responder: number (100 mg, 90-<100 kg): 12
Week 52 Paired Biopsies Consensus Fibrosis Improvement Responder: percentage (in parentheses) (100 mg, 90-<100 kg): (29.3)
Week 52 Paired Biopsies Consensus NASH Resolution Responder: number (100 mg, 90-<100 kg): 13
Week 52 Paired Biopsies Consensus NASH Resolution Responder: percentage (in parentheses) (100 mg, 90-<100 kg): (31.7)
≥30% reduction in MRI-PDFF at Week 52: number of patients (100 mg, 90-<100 kg): 24
≥30% reduction in MRI-PDFF at Week 52: percentage of patients (in parentheses) (100 mg, 90-<100 kg): (70.6)
≥120% increase in SHBG at Week 52: number of patients (100 mg, 90-<100 kg): 28
≥120% increase in SHBG at Week 52: percentage of patients (in parentheses) (100 mg, 90-<100 kg): (63.6)
Discontinued Study Prior to Week 52: number (100 mg, 100-<110 kg): 9
Discontinued Study Prior to Week 52: percentage (in parentheses) (100 mg, 100-<110 kg): (17.6)
Week 52 MITT Consensus Fibrosis Improvement Responder: number (100 mg, 100-<110 kg): 14
Week 52 MITT Consensus Fibrosis Improvement Responder: percentage (in parentheses) (100 mg, 100-<110 kg): (27.5)
Week 52 MITT Consensus NASH Resolution Responder: number (100 mg, 100-<110 kg): 16
Week 52 MITT Consensus NASH Resolution Responder: percentage (in parentheses) (100 mg, 100-<110 kg): (31.4)
Week 52 Paired Biopsies Consensus Fibrosis Improvement Responder: number (100 mg, 100-<110 kg): 14
Week 52 Paired Biopsies Consensus Fibrosis Improvement Responder: percentage (in parentheses) (100 mg, 100-<110 kg): (35.0)
Week 52 Paired Biopsies Consensus NASH Resolution Responder: number (100 mg, 100-<110 kg): 16
Week 52 Paired Biopsies Consensus NASH Resolution Responder: percentage (in parentheses) (100 mg, 100-<110 kg): (40.0)
≥30% reduction in MRI-PDFF at Week 52: number of patients (100 mg, 100-<110 kg): 29
≥30% reduction in MRI-PDFF at Week 52: percentage of patients (in parentheses) (100 mg, 100-<110 kg): (70.7)
≥120% increase in SHBG at Week 52: number of patients (100 mg, 100-<110 kg): 27
≥120% increase in SHBG at Week 52: percentage of patients (in parentheses) (100 mg, 100-<110 kg): (62.8)
Discontinued Study Prior to Week 52: number (100 mg, <80 kg): 12
Discontinued Study Prior to Week 52: percentage (in parentheses) (100 mg, <80 kg): (21.4)
Week 52 MITT Consensus Fibrosis Improvement Responder: number (100 mg, <80 kg): 16
Week 52 MITT Consensus Fibrosis Improvement Responder: percentage (in parentheses) (100 mg, <80 kg): (28.6)
Week 52 MITT Consensus NASH Resolution Responder: number (100 mg, <80 kg): 14
Week 52 MITT Consensus NASH Resolution Responder: percentage (in parentheses) (100 mg, <80 kg): (25.0)
Week 52 Paired Biopsies Consensus Fibrosis Improvement Responder: number (100 mg, <80 kg): 16
Week 52 Paired Biopsies Consensus Fibrosis Improvement Responder: percentage (in parentheses) (100 mg, <80 kg): (40.0)
Week 52 Paired Biopsies Consensus NASH Resolution Responder: number (100 mg, <80 kg): 14
Week 52 Paired Biopsies Consensus NASH Resolution Responder: percentage (in parentheses) (100 mg, <80 kg): (35.0)
≥30% reduction in MRI-PDFF at Week 52: number of patients (100 mg, <80 kg): 24
≥30% reduction in MRI-PDFF at Week 52: percentage of patients (in parentheses) (100 mg, <80 kg): (64.9)
≥120% increase in SHBG at Week 52: number of patients (100 mg, <80 kg): 30
≥120% increase in SHBG at Week 52: percentage of patients (in parentheses) (100 mg, <80 kg): (68.2)
≥30% Reduction in MRI-PDFF at Week 52, Assessment (%) (100 mg, body weight >100 kg): 72.5%
≥120% Increase in SHBG at Week 52, Assessment (%) (100 mg, body weight >100 kg): 55.0%
≥30% Reduction in MRI-PDFF at Week 52, Assessment (%) (100 mg, body weight ≤100 kg): 71.7%
≥120% Increase in SHBG at Week 52, Assessment (%) (100 mg, body weight ≤100 kg): 64.2%
Discontinued Study Prior to Week 52: number (100 mg, ≥110 kg): 18
Discontinued Study Prior to Week 52: percentage (in parentheses) (100 mg, ≥110 kg): (16.7)
Week 52 MITT Consensus Fibrosis Improvement Responder: number (100 mg, ≥110 kg): 27
Week 52 MITT Consensus Fibrosis Improvement Responder: percentage (in parentheses) (100 mg, ≥110 kg): (25.0)
Week 52 MITT Consensus NASH Resolution Responder: number (100 mg, ≥110 kg): 30
Week 52 MITT Consensus NASH Resolution Responder: percentage (in parentheses) (100 mg, ≥110 kg): (27.8)
Week 52 Paired Biopsies Consensus Fibrosis Improvement Responder: number (100 mg, ≥110 kg): 27
Week 52 Paired Biopsies Consensus Fibrosis Improvement Responder: percentage (in parentheses) (100 mg, ≥110 kg): (31.4)
Week 52 Paired Biopsies Consensus NASH Resolution Responder: number (100 mg, ≥110 kg): 30
Week 52 Paired Biopsies Consensus NASH Resolution Responder: percentage (in parentheses) (100 mg, ≥110 kg): (34.9)
≥30% reduction in MRI-PDFF at Week 52: number of patients (100 mg, ≥110 kg): 53
≥30% reduction in MRI-PDFF at Week 52: percentage of patients (in parentheses) (100 mg, ≥110 kg): (74.6)
≥120% increase in SHBG at Week 52: number of patients (100 mg, ≥110 kg): 45
≥120% increase in SHBG at Week 52: percentage of patients (in parentheses) (100 mg, ≥110 kg): (50.6)
patients with worsening of VCTE (VCTE responder analyses at 1-3 years): less than 10%
Consensus Fibrosis Improvement, Assessment (%) [1]: 22.5%
Consensus NASH Resolution, Assessment (%) [1]: 27.0%
Consensus Fibrosis Improvement, Assessment (%) [2]: 35.4%
Consensus NASH Resolution, Assessment (%) [2]: 32.0%
Consensus Fibrosis Improvement, Assessment (%) [3]: 32.5%
Consensus NASH Resolution, Assessment (%) [3]: 35.8%
Consensus Fibrosis Improvement, Assessment (%) [4]: 33.6%
Consensus NASH Resolution, Assessment (%) [4]: 36.0%
Consensus Fibrosis Improvement, Assessment (%) [5]: 17.4%
Consensus NASH Resolution, Assessment (%) [5]: 20.8%
Consensus Fibrosis Improvement, Assessment (%) [6]: 29.2%
Consensus NASH Resolution, Assessment (%) [6]: 26.4%
Consensus Fibrosis Improvement, Assessment (%) [7]: 25.6%
Consensus NASH Resolution, Assessment (%) [7]: 28.2%
Consensus Fibrosis Improvement, Assessment (%) [8]: 25.1%
Consensus NASH Resolution, Assessment (%) [8]: 26.9%
